Test results: patent publication US7858745B2, “Use of specifically engineered enzymes to enhance the efficacy of prodrugs” (The Board of Trustees of the University of Illinois, priority 2003, dated 2010)
Blank lines part the entries; values can stand above or below the compound they belong to.

Columns and labels:
HL60 cell line = experiment: Annexin V and propidium iodide (PI) staining of apoptotic cells, HL60; format: cell-based; details: after 96 hours; AraC at 1 μM
Protocol: (§1) The HuM195 antibody will only bind and internalize to cells expressing CD33. Thus, the HL60 cell line (derived from AML cells) and the NB4 cell line, which are CD33 positive, were used to test the activity of the HuM195-dCK system in live cells. The cells were treated with AraC, the HuM195-dCK conjugate, or the combination of HuM195-dCK and the AraC. Annexin V and propidium iodide (PI) staining was used to identify apoptotic cells.

NB4 cells = experiment: Apoptosis assay, NB4; format: cell-based; details: after 96 hours; AraC 250 nM
Protocol: as §1
The NB4 cells were also treated with AraC, the HuM195-dCK conjugate, or the combination of HuM195-dCK and the AraC, and an apoptosis assay was performed as above. The AraC dose used, however, was decreased from 1000 nM to 250 nM. The results were similar to those observed in the HL60 cells (FIG. 8). The conjugate with AraC (right bars) achieve ˜65% cell killing after 96 hours, whereas AraC alone was below 40%.

dCK = dCK (Homo sapiens, UniProt P27707); details: versus cladribine; cited from earlier work
dNK = target: T1, dNK (Drosophila melanogaster, UniProt Q9XZT6); details: dC phosphorylation; cited from earlier work
T1 sequence (Q9XZT6 1-250): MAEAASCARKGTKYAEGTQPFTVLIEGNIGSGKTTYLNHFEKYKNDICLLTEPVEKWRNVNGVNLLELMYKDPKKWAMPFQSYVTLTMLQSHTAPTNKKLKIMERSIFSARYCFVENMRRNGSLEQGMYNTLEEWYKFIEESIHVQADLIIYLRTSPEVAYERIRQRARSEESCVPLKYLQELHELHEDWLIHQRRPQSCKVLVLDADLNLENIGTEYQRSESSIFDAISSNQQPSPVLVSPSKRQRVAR

Wild Type dCK = Wild Type dCK (Homo sapiens, UniProt P27707); experiment: Steady-state kinetic assay of deoxycytidine kinase activity, wild type enzyme; details: prodrug versus dC
A100V/R104M/D133A-dCK = A100V/R104M/D133A-dCK (Homo sapiens, UniProt P27707, A100V/D133A/R104M); experiment: Steady-state kinetic assay of deoxycytidine kinase activity, triple mutant enzyme
Protocol: Since Arg104 plays a role in the already mentioned active site hydrogen-bonding network, its mutation to the uncharged methionine was combined with the compensatory change of Asp133 to an alanine. […] In addition, Ala100 was changed to a valine as is found in dNK.
All experiments were performed in duplicates.

Chain of Wild Type dCK (P27707 whole entry): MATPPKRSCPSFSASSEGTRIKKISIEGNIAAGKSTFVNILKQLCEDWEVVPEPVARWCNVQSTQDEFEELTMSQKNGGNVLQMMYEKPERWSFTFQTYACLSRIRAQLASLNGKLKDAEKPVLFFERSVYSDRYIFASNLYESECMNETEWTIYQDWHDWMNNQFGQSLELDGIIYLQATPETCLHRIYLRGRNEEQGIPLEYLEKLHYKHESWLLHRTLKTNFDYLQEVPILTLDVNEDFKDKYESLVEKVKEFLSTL
Chain of A100V/R104M/D133A-dCK (P27707 whole entry A100V/R104M/D133A): as the sequence (P27707 whole entry) above, with A100V, R104M, D133A counted along it
Chain of dCK (P27707 whole entry): as the sequence (P27707 whole entry) above

Compound: Nc1ccn([C@@H]2O[C@H](CO)[C@@H](O)[C@@H]2O)c(=O)n1 [ara-C, 1-β-D-arabinofuranosylcytosine]
cell death (HL60 cell line): 50% | cell killing (NB4 cells): below 40%

Compound: Nc1nc(Cl)nc2c1ncn2[C@@H]1O[C@H](CO)[C@@H](O)[C@@H]1F [clofarabine, 2-chloro-2′-arabino-fluoro-2′-deoxyadenosine]
more efficient substrate for dCK than cladribine (dCK): ~3 fold

Compound: Nc1ccn([C@H]2C[C@H](O)[C@@H](CO)O2)c(=O)n1 [dC, deoxycytidine]
kcat (dNK): 16.5 s⁻¹

change in KM compared to dC (Wild Type dCK): slight increase | higher enzymatic efficiency for dCK compared to dC (Wild Type dCK): ~4 fold | increase in the kcat compared to dC (Wild Type dCK): 10 fold | increase of efficiency of the triple mutant over wild type (A100V/R104M/D133A-dCK; triple mutant versus wild type dCK): ~4 fold
Compound: Nc1ccn([C@@H]2O[C@H](CO)[C@@H](O)C2(F)F)c(=O)n1 [gemcitabine, 2′,2′-difurodeoxycytidine]

Compound: Cc1cn([C@H]2C[C@H](O)[C@@H](CO)O2)c(=O)[nH]c1=O [thymidine]
phosphorylation of thymidine by the dCK mutant (A100V/R104M/D133A-dCK; Arg104 to methionine, Asp133 to alanine): gained the ability to phosphorylate thymidine
